In patent US20080103189A1, “PREPARATION AND UTILITY OF SUBSTITUTED INDOLES” (Auspex Pharmaceuticals, Inc., priority 2006, published 2008):

Conditions: topical or ocular, 5 microgram per mL
Experimental: Liver microsomal stability assays were conducted at 1 mg per mL liver microsome protein with an NADPH-generating system in 2% NaHCO3 (2.2 mM NADPH, 25.6 mM glucose 6-phosphate, 6 units per mL glucose 6-phosphate dehydrogenase and 3.3 mM MgCl2). Test compounds were prepared as solutions in 20% acetonitrile-water and added to the assay mixture (final assay concentration 5 microgram per mL) and incubated at 37° C. Final concentration of acetonitrile in the assay were <1%. Aliquots (50 μL) were taken out at times 0, 15, 30, 45, and 60 minutes, and diluted with ice cold acetonitrile (200 μL) to stop the reactions. Samples were centrifuged at 12000 RPM for 10 minutes to precipitate proteins. Supernatants were transferred to microcentrifuge tubes and stored for LC/MS/MS analysis of the degradation half-life of the test compounds.

increase in the degradation half-life as compared to the non-isotopically enriched drug: 20-250%
SMILES: [2H]C([2H])(Cc1c[nH]c2ccc(CS(=O)(=O)N3CCCC3)cc12)N(C)C
